Source: US11591301B2, “Indoleamine-2,3-dioxygenase inhibitor, preparation method therefor and use thereof” (HINOVA PHARMACEUTICALS INC., priority 2018, dated 2023)

Experiments:
[1] = Metabolic stability in mouse liver microsomes; type: in vitro ADME; conditions: mouse liver microsomes 0.5 mg/mL; read-out: Mouse liver microsomes Half-life t1/2
Protocol: (§1) Step 1: the mother liquor is prepared according to the composition ratio in Table 3 below:
(§2) Step 2: two experiments were respectively carried out as follows:
(§3) A) Adding NADPH:10 μL of liver microsomes at a concentration of 20 mg/mL and 40 μL of NADPH at a concentration of 10 mM were added to the incubation test. The final concentrations of liver microsomes and NADPH were 0.5 mg/mL and 1 mM, respectively.
(§4) B) Without addition of NADPH:10 μL of liver microsomes at a concentration of 20 mg/mL and 40 μL of high purity water were added to the incubation test. The final concentration of liver microsome was 0.5 mg/mL.
(§5) Step 3: 4 μL of 200 µM positive control or test compound was added and then the reaction was carried out. The positive control in this experiment was Verapamil. The final concentration of test compound was […].
(§6) Step 4: 50 μL was respectively taken out from the reaction solutions at the time points of 0, 15, 30, 45 and 60 min. 4× volumes of acetonitrile and IS (alprazolam at the concentration of 100 nM, labetalol at the concentration of 200 nM, caffeine at the concentration of 200 nM and ketoprofen at the concentration of 2 μM) were added to the reaction solution. The sample was centrifuged at 3,220 gram gravity for 40 minutes. 100 μL high-purity water was added to 100 μL supernatant and then analyzed by LC-MS/MS.
(§7) Step 5: Data analysis: the peak area was determined from the extracted ion chromatogram. The slope value k was determined by linear regression of the natural logarithm from the curve produced by the remaining percentage of the parent drug vs the incubation time.
(§8) In vitro half-life (in vitro t1/2) is determined by the slope value: in vitro t1/2=−(0.693/k)

[2] = Metabolic stability in human liver microsomes; type: in vitro ADME; conditions: human liver microsomes 0.5 mg/mL; read-out: Human liver microsomes Half-life t1/2
Protocol: as §1, §2, §3, §4, §5, §6, §7, §8

[3] = Pharmacokinetic experiment in mice (PO); type: in vivo; conditions: ICR, mouse, plasma, 10 mg/kg, 10 mpk; for Cmax: read-out: Blood concentration Cmax; for AUC: read-out: Curve area AUC; for half-life: read-out: Half life t1/2 (converted); for Tmax: read-out: Peak hour tmax
Protocol: Experimental animals: ICR mice (Chengdu Dashuo Experimental Animal Co., Ltd.)
5 mg of compound (compound 4 of the present invention, using similar compound INCB-24360 in clinical Phase III as reference compound) was accurately weighed, and the corresponding vehicle was added to a final volume of 10 ml, then mixed by ultrasonic vortexing. The solution at the concentration of 0.5 mg/ml was prepared. The final solution (0.2 ml) prepared was stored at −20° C. for concentration determination. 9 healthy adult ICR mice (20-30 g) were fasted overnight (free access to water), and received the administration volume of 0.2 ml/10 g by gavage; just prior to administration and 0.5, 1, 2, 4, 6, 8, 12, and 24 h after administration, 0.1 ml blood was collected from the retroorbital venous plexus, centrifuged at 4° C. for 5 min to separate the plasma, and stored at −20° C. for testing. Then the concentration of test compound in plasma was measured by LC/MS/MS method.

human IDO1 protease = human IDO1 protease (Homo sapiens (Human), UniProt P14902); experiment: Inhibitory activity against human IDO1 protease (absorbance test method); type: biochemical; conditions: IDO1 (His-tag) enzyme, absorbance at 320 nm
Protocol: IDO1 (His-tag) enzyme(BPS Bioscience), L-tryptophan (Sigma), methylene blue (Sigma), Catalase originated from the liver of cattle (Sigma), L-ascorbic acid (Sigma), glycerol (Sigma), potassium dihydrogen phosphate solution (Sigma), Tween 20 (Sigma), automatic sampling platformLiquid handler (Bravo & Echo), microplate ReaderSpectraMax M5e (Molecular Devices).
2) Test Method of Compounds: The Compounds are Determined by Absorbance Test Method:
The tested compounds are dissolved in DMSO to prepare a high concentration of storage solution. The stock solution of reference compound was diluted with DMSO to prepare a 100× solution. In the first column of the working plate, 8 μL above tested compounds and 8 μL 100× reference compound were respectively added as the highest concentration, and then the highest concentrations were subjected to three times dilution to obtain 11 concentrations and prepare 100× solution. 0.5 μL solution was transferred from the above plate to the detection plate. To each well was added 0.5 μL 100× compound solution. For HPE and ZPE control wells, 0.5 μL 100% DMSO was added. 25 μL 2×IDO1 (His-tag) enzyme solution (containing L-ascorbic acid, methylene blue, and catalase) was added to each well. 25 μL reaction solution without IDO1 (His-tag) enzyme was added into HPE control well. The test plate was centrifugated at 1000 rpm for 1 minute to mix well. Then, the test plate was incubated at room temperature for 30 minutes. 25 μL above 2× substrate (L-tryptophan) solution was added to each well. The test plate was centrifugated at 1000 rpm for 1 minute to mix well. The detection plate was placed on ELISA (SpectraMax M5e), the temperature was set at 25° C., and the absorbance (OD value) was measured at 320 nm every 10 minutes till 60 minutes.
Calculating the increase ratio of absorbance: the slope of the absorbance increase curve from 10 min to 60 min is derived from SpectralMax M5e. The inhibition coefficient of compound was calculated: the inhibition ratio of compound=(the absorbance increase ratio of ZPE control well−the absorbance increase ratio of compound well)/(the absorbance increase ratio of ZPE control well−the absorbance increase ratio of HPE control well)×100. Results was analyzed by Prism 5.0.

[4] = Metabolic stability in rat liver microsomes; type: in vitro ADME; conditions: rat liver microsomes 0.5 mg/mL; read-out: Rat liver microsomes Half-life t1/2
Protocol: as §1, §2, §3, §4, §5, §6, §7, §8

[5] = molecular target: IDO1 protease activity in Hela cells (Homo sapiens (Human), UniProt P14902); experiment: Inhibition of IDO protease in HeLa cells (IDO/kynurenine experiment, IFN-γ induced); type: cell-based; conditions: 10 ng/mL IFN-γ, 48 h, OD480 nm, read-out: IC50, inhibitory activity against IDO1 protease activity in Hela cells
Protocol: 2) Experimental Method for Compound Assay 2.1 Seeding HeLa Cells into 96 Well Plate
The medium was taken out from the flask and the cells were washed with PBS. TrypLE solution was added to the flask to make the cells separate. The cells were further washed once with fresh medium containing 10% FBS, and then re-suspended in the medium until the final concentration was 2.3×10^6/mL. Only cells with activity greater than 90% can be used for detection. HeLa cells were planted into 100 μL suitable growth median 96 well plate at 3000 cells/well. The cells were incubated at 37° C. under 5% CO2 overnight.
The compound was diluted to the concentration of 10 mM with DMSO, that was then continuously diluted 3 times to get 9 concentrations. 5 μL compound was added into 45 μL media as the median dilution (10 times dilution, containing 10% DMSO). 96 μL fresh growth media were added to each well to reach the total volume of 196 μL. 2 μL compound solution was taken from the mid-diluted solution and added to the cells in the wells of the assay plate, and then incubated in a 5% CO2 incubator at 37° C. for 30 minutes. 2 μL human IFN-γ solution was added to reach a total volume of 200 μL, with the final concentration of 10 ng/mL, and the final concentration is 0.1%. The cells were incubated in 5% CO2 incubator at 37° C. for 48 h.
After incubating for another 48 hours in a 5% CO2 incubator at 37° C., 140 μL supernatant was added to each well and transferred to a new 96-well plate. 10 μL of 6.1N CCl3COOH was further added to each well, and incubated at 50° C. for 30 min after sealing. The plate was then centrifuged at 2500 rpm for 10 minutes. 100 μL supernatant in each well was transferred to another 96-well assay plate and mixed with 100 μL of 6% (w/v) p-dimethylaminobenzaldehyde. EnSpire was used to read the plate at OD480 nm.
The average data of HC (high control: 10 ng/mL IFN-γ) and LC (low control: no IFN-γ) were calculated for each screening plate. Percent inhibition of compound well (% inh)=100*(aveHC−cpd well)/(aveHC−ave LC). Finally, GraphPad Prism 6 software was used to calculate the IC50 values of compounds and draw the effect-concentration curve.

IDO1 protease activity in Hela cells, sequence (P14902 whole entry): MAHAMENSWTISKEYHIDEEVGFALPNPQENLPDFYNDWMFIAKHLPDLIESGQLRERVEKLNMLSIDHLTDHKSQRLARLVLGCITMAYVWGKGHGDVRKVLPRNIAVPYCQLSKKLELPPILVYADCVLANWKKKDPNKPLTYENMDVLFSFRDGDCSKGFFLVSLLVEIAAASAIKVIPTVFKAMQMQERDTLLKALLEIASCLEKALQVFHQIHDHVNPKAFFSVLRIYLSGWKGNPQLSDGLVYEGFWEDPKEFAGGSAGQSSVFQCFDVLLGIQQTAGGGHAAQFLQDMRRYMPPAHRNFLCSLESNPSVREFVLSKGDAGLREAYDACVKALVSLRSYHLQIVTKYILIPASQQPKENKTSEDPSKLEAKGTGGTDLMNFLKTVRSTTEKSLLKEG
human IDO1 protease, sequence (P14902 whole entry): as above

half-life at 2 µM [1] | half-life at 2 µM [2] | Cmax [3] | AUC [3] | half-life [3] | Tmax [3] | IC50 (human IDO1 protease) | half-life at 2 µM [4] | IC50 [5] | SMILES
0.35 h | 5.72 h | 469 ng/mL | 1050 ng·h/mL | 2.5 h | 0.5 h |  | 0.633 h | 10 nM | [2H]C([2H])([2H])NS(=O)(=O)CCCNc1nonc1/C(=N/O)Nc1ccc(F)c(Br)c1 [Example 27, N-(3-bromo-4-fluorophenyl)-N′-hydroxyl-4-((3-(N-(methyl-d3)sulfonyl)propyl)amino)-1,2,5-oxadiazol-3-oximecarboxamide]
1.3 h | 2.62 h |  |  |  |  |  | 2.43 h |  | NS(=O)(=O)NCCNc1nonc1C(=NO)Nc1ccc(F)c(Br)c1 [INCB024360, reference compound]

Continued, molecule first:

SMILES | half-life at 2 µM [1] | half-life at 2 µM [2] | Cmax [3] | AUC [3] | half-life [3] | Tmax [3] | IC50 (human IDO1 protease) | half-life at 2 µM [4] | IC50 [5]
NS(=O)(=O)CCNc1nonc1C(=NO)Nc1ccc(F)c(Br)c1 [Example 1, N-(3-bromo-4-fluorophenyl)-N′-hydroxyl-4-((2-sulfamoylethyl)amino)-1,2,5-oxadiazol-3-formamidine] | 0.8 h | 7.45 h | 555 ng/mL | 1320 ng·h/mL | 1.28 h | 0.67 h | 19 nM | 1.73 h | 
CNS(=O)(=O)CCCNc1nonc1/C(=N/O)Nc1ccc(F)c(Br)c1 [Example 11, N-(3-bromo-4-fluorophenyl)-N′-hydroxyl-4-((3-(N-methylsulfamoyl)propyl)amino)-1,2,5-oxadiazol-3-formamidine] | 0.167 h | 1.55 h | 687 ng/mL | 845 ng·h/mL | 1.15 h | 0.5 h |  | 0.4 h | 8 nM
CCNS(=O)(=O)CCCNc1nonc1C(=NO)Nc1ccc(F)c(Br)c1 [Example 12, N-(3-bromo-4-fluorophenyl)-N′-hydroxyl-4-((3-(N-ethylsulfamoyl)propyl)amino)-1,2,5-oxadiazol-3-formamidine] | 0.383 h | 2.73 h | 704 ng/mL | 1080 ng·h/mL | 2.87 h | 0.5 h | 47 nM | 0.317 h | 12 nM
NS(=O)(=O)CCCCNc1nonc1C(=NO)Nc1ccc(F)c(Br)c1 [Example 22, N-(3-bromo-4-fluorophenyl)-N′-hydroxyl-4-((4-sulfamoylbutyl)amino)-1,2,5-oxadiazol-3-formamidine] | 1.45 h | 29.4 h |  |  |  |  |  | 1.22 h | 12 nM
